This is an account of results in ChEMBL document CHEMBL1201862, “PubChem BioAssay data set” (2004).

Test [1] concerns HEK293. Description: cells. The test is classed as functional, cell-based. Conditions: Homo sapiens.
The target in test [2] is T1, Nuclear receptor subfamily 0 group B member 1 (Homo sapiens, UniProt P51843).
T1 sequence (P51843 whole entry): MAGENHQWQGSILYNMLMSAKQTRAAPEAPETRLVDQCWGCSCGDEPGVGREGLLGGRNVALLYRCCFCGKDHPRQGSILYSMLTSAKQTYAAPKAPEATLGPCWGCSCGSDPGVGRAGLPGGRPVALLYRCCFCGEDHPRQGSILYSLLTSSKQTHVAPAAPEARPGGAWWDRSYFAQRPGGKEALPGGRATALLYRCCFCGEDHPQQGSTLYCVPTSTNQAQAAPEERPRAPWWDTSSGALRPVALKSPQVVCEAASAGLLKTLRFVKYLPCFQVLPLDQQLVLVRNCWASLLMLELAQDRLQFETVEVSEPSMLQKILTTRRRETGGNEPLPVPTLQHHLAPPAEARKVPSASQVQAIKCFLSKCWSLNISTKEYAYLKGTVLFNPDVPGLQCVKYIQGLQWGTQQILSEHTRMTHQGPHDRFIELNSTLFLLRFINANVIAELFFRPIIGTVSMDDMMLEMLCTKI
Description: Luminescence-based cell-based high throughput dose response assay for inhibitors of the orphan nuclear receptor subfamily 0, group B, member 1 (DAX1; NR0B1). [Related pubchem assays (depositor defined):AID504766, AID504790]. The test is classed as functional.

The test system of test [3] is HeLa. Description: ATP-based viability loss in HeLa cells – cell-based, CellTiter-Glo luminescence, cherry-pick samples, cytotoxicity control for MITF activator project, dose response (AID 540259). Conditions: Homo sapiens. In kind it is functional. Background: In ATP-based viability assays light output follows the ATP content of the culture.
Test [4] deals with T2, Protein skinhead-1 (Caenorhabditis elegans, UniProt P34707).
T2 sequence (P34707 whole entry): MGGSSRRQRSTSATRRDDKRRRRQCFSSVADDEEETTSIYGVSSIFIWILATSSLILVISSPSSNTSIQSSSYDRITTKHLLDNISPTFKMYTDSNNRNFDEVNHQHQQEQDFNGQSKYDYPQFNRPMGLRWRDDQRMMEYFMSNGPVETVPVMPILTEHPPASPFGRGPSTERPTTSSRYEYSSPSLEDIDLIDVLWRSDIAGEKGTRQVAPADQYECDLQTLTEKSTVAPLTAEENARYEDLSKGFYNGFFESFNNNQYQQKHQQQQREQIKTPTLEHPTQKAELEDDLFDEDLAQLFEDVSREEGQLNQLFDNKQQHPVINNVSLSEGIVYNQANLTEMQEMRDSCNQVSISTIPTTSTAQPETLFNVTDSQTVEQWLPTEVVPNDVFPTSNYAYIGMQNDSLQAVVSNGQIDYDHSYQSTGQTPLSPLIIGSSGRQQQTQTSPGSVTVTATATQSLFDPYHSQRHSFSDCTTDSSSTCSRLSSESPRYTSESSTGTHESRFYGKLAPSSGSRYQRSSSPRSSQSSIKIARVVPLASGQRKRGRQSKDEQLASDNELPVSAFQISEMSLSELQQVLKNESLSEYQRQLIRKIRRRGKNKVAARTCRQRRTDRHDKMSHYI
In kind it is functional.

For test [5], the target named is T3, Sentrin-specific protease 8 (Homo sapiens, UniProt Q96LD8).
T3 sequence (Q96LD8 whole entry): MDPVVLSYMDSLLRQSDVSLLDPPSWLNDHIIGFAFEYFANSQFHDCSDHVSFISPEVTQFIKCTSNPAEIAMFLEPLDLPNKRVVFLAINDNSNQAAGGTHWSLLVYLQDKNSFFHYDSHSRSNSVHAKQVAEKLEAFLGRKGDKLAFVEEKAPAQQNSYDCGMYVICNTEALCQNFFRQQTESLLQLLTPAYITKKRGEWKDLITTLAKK
The experiment in a line: inhibition of human SENP8 cleavage activity – biochemical, luminescence, SAR follow-up (AID 504501). In kind it is functional.

The target of test [6] is T4, Caspase-3 (Homo sapiens, UniProt P42574).
T4 sequence (P42574 whole entry): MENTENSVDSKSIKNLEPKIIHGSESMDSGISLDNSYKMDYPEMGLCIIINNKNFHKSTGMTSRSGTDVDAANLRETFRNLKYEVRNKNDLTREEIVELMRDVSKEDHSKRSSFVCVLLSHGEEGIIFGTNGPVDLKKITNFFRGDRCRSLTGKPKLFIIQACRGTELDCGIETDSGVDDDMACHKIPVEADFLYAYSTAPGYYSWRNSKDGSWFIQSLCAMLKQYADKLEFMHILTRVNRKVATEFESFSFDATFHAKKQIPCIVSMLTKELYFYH
Description: SAR Analysis of small molecule inhibitors of Sentrin-specific proteases (SENPs) using a Caspase-3 Selectivity assay. [Related pubchem assays (depositor defined):AID2540, AID2599, AID434973, AID489001]. In kind it is functional.

In test [7] the target is T5, Sentrin-specific protease 6 (Homo sapiens, UniProt Q9GZR1).
T5 sequence (Q9GZR1 whole entry): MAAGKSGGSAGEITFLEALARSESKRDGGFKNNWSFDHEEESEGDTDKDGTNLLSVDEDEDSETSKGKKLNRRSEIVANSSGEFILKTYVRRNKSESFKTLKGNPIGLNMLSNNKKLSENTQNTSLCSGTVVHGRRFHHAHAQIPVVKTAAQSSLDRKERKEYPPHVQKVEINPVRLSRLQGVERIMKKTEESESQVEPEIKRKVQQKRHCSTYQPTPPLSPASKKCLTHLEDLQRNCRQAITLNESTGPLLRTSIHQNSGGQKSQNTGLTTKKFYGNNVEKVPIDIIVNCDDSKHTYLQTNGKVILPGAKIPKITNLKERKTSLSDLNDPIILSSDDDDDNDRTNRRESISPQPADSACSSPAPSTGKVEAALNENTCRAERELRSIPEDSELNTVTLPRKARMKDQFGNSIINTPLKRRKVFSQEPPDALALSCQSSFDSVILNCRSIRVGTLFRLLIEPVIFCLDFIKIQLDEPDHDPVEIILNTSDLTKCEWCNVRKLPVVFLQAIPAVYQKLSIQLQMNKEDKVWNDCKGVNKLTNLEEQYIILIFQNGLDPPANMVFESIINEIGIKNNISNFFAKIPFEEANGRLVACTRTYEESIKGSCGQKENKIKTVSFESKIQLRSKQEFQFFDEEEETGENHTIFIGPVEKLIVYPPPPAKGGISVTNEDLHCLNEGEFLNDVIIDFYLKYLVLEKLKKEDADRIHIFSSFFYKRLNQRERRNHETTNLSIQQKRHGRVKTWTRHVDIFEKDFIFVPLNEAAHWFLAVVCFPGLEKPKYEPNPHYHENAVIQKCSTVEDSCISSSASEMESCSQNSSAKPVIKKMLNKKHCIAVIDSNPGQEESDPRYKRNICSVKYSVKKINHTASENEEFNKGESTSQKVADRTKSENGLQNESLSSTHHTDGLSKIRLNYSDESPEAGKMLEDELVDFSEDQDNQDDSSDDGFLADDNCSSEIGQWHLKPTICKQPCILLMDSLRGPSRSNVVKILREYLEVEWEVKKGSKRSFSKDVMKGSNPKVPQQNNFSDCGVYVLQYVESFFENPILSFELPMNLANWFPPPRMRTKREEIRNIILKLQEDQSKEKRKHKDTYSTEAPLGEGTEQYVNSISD
Description: SAR Analysis of small molecule inhibitors of Sentrin-specific protease 6 (SENP6) using a Luminescent assay. [Related pubchem assays (depositor defined):AID2582, AID2599]. The test is classed as functional.

Test [8] has as its target T6, Sentrin-specific protease 7 (Homo sapiens, UniProt Q9BQF6).
T6 sequence (Q9BQF6 whole entry): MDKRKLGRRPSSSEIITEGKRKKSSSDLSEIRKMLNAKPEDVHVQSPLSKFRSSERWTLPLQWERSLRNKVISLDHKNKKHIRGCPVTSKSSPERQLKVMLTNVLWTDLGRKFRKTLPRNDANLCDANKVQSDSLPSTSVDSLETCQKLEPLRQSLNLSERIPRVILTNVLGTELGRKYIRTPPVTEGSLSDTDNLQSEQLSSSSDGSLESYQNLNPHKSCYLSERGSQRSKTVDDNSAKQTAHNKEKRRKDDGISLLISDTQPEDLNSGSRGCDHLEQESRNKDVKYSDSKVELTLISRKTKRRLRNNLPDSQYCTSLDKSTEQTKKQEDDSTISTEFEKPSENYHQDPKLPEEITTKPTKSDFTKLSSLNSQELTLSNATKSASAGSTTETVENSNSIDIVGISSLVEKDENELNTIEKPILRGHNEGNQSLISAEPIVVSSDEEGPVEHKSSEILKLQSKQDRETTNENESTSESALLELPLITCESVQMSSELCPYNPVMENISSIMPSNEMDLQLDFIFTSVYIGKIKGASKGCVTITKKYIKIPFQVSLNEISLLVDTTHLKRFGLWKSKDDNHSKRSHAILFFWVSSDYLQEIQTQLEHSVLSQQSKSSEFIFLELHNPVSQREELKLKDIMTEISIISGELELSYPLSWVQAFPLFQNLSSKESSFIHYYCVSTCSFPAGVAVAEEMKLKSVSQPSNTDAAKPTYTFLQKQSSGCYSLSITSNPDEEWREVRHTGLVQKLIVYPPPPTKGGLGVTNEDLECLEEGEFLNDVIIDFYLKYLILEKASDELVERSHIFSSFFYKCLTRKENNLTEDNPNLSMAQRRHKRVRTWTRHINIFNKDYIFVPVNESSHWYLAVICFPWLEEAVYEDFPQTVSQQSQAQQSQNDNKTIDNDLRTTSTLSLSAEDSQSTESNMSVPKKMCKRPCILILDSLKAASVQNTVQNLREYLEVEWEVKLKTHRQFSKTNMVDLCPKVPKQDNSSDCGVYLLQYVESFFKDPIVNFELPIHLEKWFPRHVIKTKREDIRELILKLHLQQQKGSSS
Description: inhibition of human SENP7 cleavage activity – biochemical, luminescence, SAR follow-up (AID 504497). In kind it is functional.

Test [9] concerns the target T7, RNA-binding protein pos-1 (Caenorhabditis elegans, UniProt G5EF15).
T7 sequence (G5EF15 whole entry): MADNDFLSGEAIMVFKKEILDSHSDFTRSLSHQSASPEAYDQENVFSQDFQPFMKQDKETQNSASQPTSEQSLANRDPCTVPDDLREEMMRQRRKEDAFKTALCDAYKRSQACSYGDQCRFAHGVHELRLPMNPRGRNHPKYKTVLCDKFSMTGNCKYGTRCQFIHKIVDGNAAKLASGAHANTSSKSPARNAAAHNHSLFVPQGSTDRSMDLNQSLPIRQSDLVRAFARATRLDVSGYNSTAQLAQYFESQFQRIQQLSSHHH
Description: disruptors of C. elegans POS-1 RNA interaction – biochemical, fluorescence polarization, dose response (AID 1964).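 Also: purified POS-1 fused to maltose binding protein made in E. coli; potency of compounds blocking POS-1 binding to fluorescent RNA.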

Test [10] addresses T8, Zinc finger protein mex-5 (Caenorhabditis elegans, UniProt Q9XUB2).
T8 sequence (Q9XUB2 whole entry): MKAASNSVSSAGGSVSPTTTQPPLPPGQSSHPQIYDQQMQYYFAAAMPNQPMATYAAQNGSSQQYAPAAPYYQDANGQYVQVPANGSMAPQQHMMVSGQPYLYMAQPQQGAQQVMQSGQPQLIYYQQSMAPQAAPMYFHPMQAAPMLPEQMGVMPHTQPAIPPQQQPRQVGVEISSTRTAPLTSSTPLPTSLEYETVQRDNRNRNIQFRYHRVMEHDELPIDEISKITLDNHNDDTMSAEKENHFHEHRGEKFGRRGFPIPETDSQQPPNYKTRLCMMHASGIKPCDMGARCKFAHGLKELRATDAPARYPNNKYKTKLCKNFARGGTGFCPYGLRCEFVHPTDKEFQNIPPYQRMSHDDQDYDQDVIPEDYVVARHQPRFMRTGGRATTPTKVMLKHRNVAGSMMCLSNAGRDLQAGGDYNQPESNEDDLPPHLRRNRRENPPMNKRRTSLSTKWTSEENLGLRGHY
The experiment in a line: potency of MEX-5 RNA-binding blockers – biochemical, C. elegans, fluorescence polarization, dose response (AID 1960). Background: Polarisation of emitted light reports the rotation of a fluorescent probe.

For test [11], the target named is T9, Endoribonuclease toxin MazF (Escherichia coli K-12, UniProt P0AE70).
T9 sequence (P0AE70 whole entry): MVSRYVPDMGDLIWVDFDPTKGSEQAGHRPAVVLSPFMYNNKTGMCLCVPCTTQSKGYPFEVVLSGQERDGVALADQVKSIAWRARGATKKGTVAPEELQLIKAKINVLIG
The experiment in a line: activation of MazEF endoribonuclease cleavage – biochemical, fluorescence, single-stranded RNA substrate, uHTS hits, dose response (AID 588481). The test is classed as functional.

Test [12] deals with T9, Endoribonuclease toxin MazF. Description: substrate-only fluorescence increase artefacts – biochemical, single-stranded RNase substrate, counter-screen for MazEF activator project, dose response (AID 588502). In kind it is functional. (In general: The purpose of a counterscreen is to sort out artefacts and off-target activity.)

The structures appear in SMILES notation. Calls of active or inactive are those of the source.

As a reminder, the IC50 is the concentration that inhibits the measured activity by half. As usually defined, the AC50 is the midpoint of the concentration-response curve, whichever way the signal moves. `Clc1ccc(OCc2noc(-c3ccsc3)n2)c(Cl)c1`: the IC50 in test [1] was > 67.5 µM (inactive); in test [2], > 67.5 µM (inactive); in test [4], > 100 µM (inactive). In addition, the AC50 in test [3] was 111 µM (active).

On to `CCCc1ccc(OCc2ccc(C(=O)Nc3ccccc3F)cc2)cc1`, for which the IC50 in test [5] was 70.3 µM (active); in test [6], > 99 µM (inactive); in test [7], 43.7 µM (active); in test [8], 85.3 µM (active).

`FC(F)(F)c1ccc(N/N=C/c2cn(Cc3ccccc3)c3ccccc23)cc1`: the IC50 in test [5], in test [6], in test [7] and in test [8] was > 99 µM (inactive) each time.

The EC50 is the concentration that produces a half-maximal response. In the case of `O=[N+]([O-])c1cccc(/C=C/c2nc(/C=N/c3ccccc3)c(O)o2)c1`, the EC50 was > 300 µM (not active) in test [9], 39.4 µM (active) in [10], > 99 µM (inactive) in [11] and 19.2 µM (active) in [12].
